Test results taken from patent US10183047B2, “Chromium-containing compositions in combination with Phyllanthus emblica and shilajit having synergistic effects for improving endothelial function and cardiovascular health” (Natreon, Inc., priority 2014, dated 2019).

Legend:
Type in all cases: in vivo, human
[1] = system: glutathione (GSH); test: Glutathione level, spectrophotometric, type 2 diabetics; settings: for GSH: DM, 400 mcg; for Mean percentage change in GSH / GSH Post Tt / GSH Pre Tt: type 2 diabetics (Example 3), chromium products 400 mcg; for Mean percentage change in GSH: 12 week treatment; for GSH Post Tt: post-treatment, 12 weeks; for GSH Pre Tt: pre-treatment
Description: (§1) The present clinical study is a prospective, randomized, double blind, placebo-controlled study. Patients of either sex, aged 30-65 years, fasting plasma glucose of 110-126 mg/dl, a glycosylated hemoglobin (HbA1c) between 6.5% and 8% and taking stable dose of anti-diabetic treatment (metformin 1500-2000 mg/day) for the past 8 weeks prior to the screening visit; and having endothelial dysfunction defined as ≤6% change in reflection index (RI) on post salbutamol challenge test were included in the study. Patients with severe uncontrolled hyperglyceamia, uncontrolled hypertension, cardiac arrhythmia, impaired hepatic or renal function, history of malignancy or stroke, smoking, chronic alcoholism, any other serious disease requiring active treatment and treatment with any other herbal supplements, were excluded from the study.
(§2) After screening, all the eligible subjects were randomized to receive either one of the three treatments orally for duration of 12 weeks—Group1—one capsule of Crominex®3+, 200 mcg once daily, Group 2—one capsule Crominex®3+, 400 mcg once daily; Group 3—one capsule of placebo once daily.
(§3) Subjects were required for follow up at 4, 8 and 12 weeks of therapy. At each visit they were evaluated for efficacy and safety. Pharmacodynamic evaluation for endothelial function was conducted at every visit. Blood samples were collected for evaluation of biomarkers before and at the end of treatment. Safety lab investigations for hematological, hepatic and renal biochemical parameters were conducted before and at the end of the study and also as and when required (in case of any adverse drug reaction (ADR). Subjects were enquired for the presence of ADR and the same was recorded in the case report form. Compliance to therapy was assessed by pill count method.
(§4) Nitric oxide, MDA, Glutathione and levels were estimated spectrophotometrically as follows. Malondialdehyde (MDA) levels were determined as described in Vidyasagar, et al., “Oxidative stress and antioxidant status in acute organophosphorous insecticide poisoning,” Indian J. Pharmacol. (April 2004) 36(2): 76-79. Glutathione levels were determined as described in G. L. Ellman, Arch. Biochem. Biophys. (1959) 82: 70-77 (original determination). Nitric oxide levels were estimated spectrophotometrically as described in Miranda, et al., “A Rapid, Simple Spectrophotometric Method for Simultaneous Detection of Nitrate and Nitrite,” NITRIC OXIDE: Biology and Chemistry (2001) Vol. 5, No. 1, pp. 62-71. hsCRP (high sensitivity C-reactive protein) was determined by ELISA method.
(§5) When the results with Crominex® 3+ in the above two examples were highly significant, especially with the 400 mcg once daily dose in type 2 diabetics, two more clinical studies (EXAMPLES 3 & 4) were conducted at the same institute, following the same methodology as described earlier, on the individual components of Crominex® 3+, i.e., chromium chloride and Phyllanthus emblica+Shilajit, and other chromium supplements available in the market, i.e., chromium picolinate, chromium polynicotinate and chromium dinicocysteinate, in type 2 diabetics as well as in subjects with metabolic syndrome symptoms.

[2] = system: malondialdehyde (MDA); test: Malondialdehyde level, spectrophotometric, type 2 diabetics; settings: for MDA: DM, 400 mcg; for Mean percentage change in MDA / MDA Post Tt / MDA Pre Tt: type 2 diabetics (Example 3), chromium products 400 mcg; for Mean percentage change in MDA: 12 week treatment; for MDA Post Tt: post-treatment, 12 weeks; for MDA Pre Tt: pre-treatment
Description: as §1, §2, §3, §4, §5

[3] = system: Glycosylated Hemoglobin A1c (HbA1c); test: Glycosylated hemoglobin A1c, type 2 diabetics; settings: for HbA1c (Abs.): DM, 400 mcg, absolute change; for Absolute change in HbA1c / HbA1c Post Tt / HbA1c Pre Tt: type 2 diabetics (Example 3), chromium products 400 mcg; for Absolute change in HbA1c: after 12 weeks treatment; for HbA1c Post Tt: post-treatment, 12 weeks; for HbA1c Pre Tt: pre-treatment
Description: as §1, §2, §3
All the subjects had undergone complete physical examination, safety lab evaluations at baseline and at the end of the treatment. Samples were collected after an overnight fast of 12 hrs after the last dose of medication for determination of hemoglobin, glycosylated hemoglobin (HbA1c), blood urea, serum creatinine, liver function, lipid profile (Total cholesterol, High density lipoprotein cholesterol (HDL-C), low density lipoprotein cholesterol (LDL-C) using appropriate standard techniques.
as §5

[4] = system: endothelial function; test: Reflection index (RI), salbutamol challenge test, metabolic syndrome subjects; settings: for RI: MS, 400 mcg; for Absolute change in RI / RI, % Post Tt / RI, % Pre Tt: metabolic syndrome subjects (Example 4), chromium products 400 mcg; for Absolute change in RI / RI, % Post Tt: after 12 weeks of treatment; for RI, % Pre Tt: pre-treatment
Source text: A salbutamol (albuterol) challenge test employing digital volume plethysmography was used to assess endothelial function as reported by Chowienczyk et al., “Photoplethysmographic assessment of pulse wave reflection: blunted response to endothelium dependant beta 2-adrenergic vasodilation in type 2 diabetes mellitus,” J. Am. Coll. Cardiol. (1999 December) 34(7):2007-14; and Naidu, et al., “Comparison of two β2 adrenoceptor agonists by different routes of administration to assess human endothelial function,” Indian J. Pharmacol. (2007) 39:168-9. The patients were examined in supine position after 5 minutes of rest. A digital volume pulse (DVP) was obtained using a photo plethysmograph (Pulse Trace PCA2, PT200, Micro Medical, Gallingham, Kent, UK) transmitting infrared light at 940 nm, placed on the index finger of the right hand. The signal from the plethysmograph was digitized using a 12 bit analogue to digital converter with a sampling frequency of 100 Hz. DVP waveforms were recorded over 20 second period and the height of the late systolic/early diastolic portion of the DVP was expressed as a percentage of the amplitude of the DVP to yield the reflection index (RI), per the procedure described in detail by Millasseau et al., “Determination of age related increases in large artery stiffness by digital pulse contour analysis,” Clinical Science (2002) 103: 371-377. Three DVP recordings were taken, and measurements of reflection index (RI) were calculated and the mean value was determined. Patients were then administered 400 μg of salbutamol by inhalation. After 15 minutes three measurements of RI were obtained again and the difference in mean RI before and after administration of salbutamol was used for assessing endothelial function. A change of ≤6% in RI post-salbutamol was considered as endothelial dysfunction.
(§6) Patients included in the study, were of either gender, aged 30-68 years, having endothelial dysfunction defined as ≤6% change in reflection index (RI) on post salbutamol challenge test and central obesity as defined by The International Diabetes Federation guidelines, dated 2006, and any two of the following conditions:
(§7) After screening, all the eligible subjects were randomized to receive either one of the three treatments orally for duration of 12 weeks: group 1—one capsule of Crominex®3+ 200 mcg once daily; group 2—one capsule 400 mcg once daily; group 3—one capsule of Placebo once daily.
(§8) Subjects were reviewed for follow up at 4 weeks, 8 and 12 weeks of therapy. At each visit they were evaluated for efficacy and safety. Pharmacodynamic evaluation for endothelial function was conducted at baseline and end of treatment. Blood samples were collected for evaluation of biomarkers before and at end of treatment. Safety lab investigations for hematological, hepatic and renal biochemical parameters were conducted before and at the end of the study and also as and when required (in case of any adverse drug reaction (ADR)). Subjects were enquired for the presence of ADR and the same was recorded in the case report form. Compliance to therapy was assessed by pill count method.
(§9) Assessment of endothelial function, biomarkers, safety parameters and primary and secondary efficacy parameters and data analysis were performed as described under the study with type 2 diabetic subjects in Example 1.
as §5

[5] = system: malondialdehyde (MDA); test: Malondialdehyde level, metabolic syndrome subjects; settings: for MDA: MS, 400 mcg; for MDA Post Tt / Mean percentage change in MDA / MDA Pre Tt: metabolic syndrome subjects (Example 4), chromium products 400 mcg; for MDA Post Tt: after 12 weeks of treatment; for Mean percentage change in MDA: after 12 weeks treatment; for MDA Pre Tt: pre-treatment
Description: as §4, §6, §7, §8, §9, §5

| Compound | GSH [1] [%] | Mean percentage change in GSH [1] | GSH Post Tt [1] [μM/L] | GSH Pre Tt [1] [μM/L] | MDA [2] [%] | Mean percentage change in MDA [2] | MDA Post Tt [2] [nmol/mL] | MDA Pre Tt [2] [nmol/mL] | HbA1c (Abs.) [3] | Absolute change in HbA1c [3] | HbA1c Post Tt [3] [NS %] | HbA1c Pre Tt [3] [%] | RI [4] [%] | Absolute change in RI [4] | RI, % Post Tt [4] | RI, % Pre Tt [4] | MDA [5] [%] | MDA Post Tt [5] [nM/ml] | Mean percentage change in MDA [5] [%] | MDA Pre Tt [5] [nM/ml] |
| --- | --- | --- | --- | --- | --- | --- | --- | --- | --- | --- | --- | --- | --- | --- | --- | --- | --- | --- | --- | --- |
| chromium dinicocysteinate | 5.77 | 5.77 ± 1.47 #$NS % | 563.66 ± 11.04 | 532.95 ± 10.63 | −6.62 | −6.62 ± 1.20@NS % | 3.72 ± 0.30 | 3.98 ± 0.31 | −0.01 | −0.01 ± 0.07 #NS % | 7.10 ± 0.08 | 7.11 ± 0.08 | −0.98 | −0.98 ± 0.76 #@NS % | −4.58 ± 0.89 @ % | −3.55 ± 1.09 ^ % | −6.7 | 3.74 ± 0.42 | −6.67 ± 1.47 | 4.00 ± 0.42 |
| chromium picolinate | 7.2 | 7.20 ± 0.82 #@NS % | 535.96 ± 31.89 | 499.99 ± 30.23 | −6.03 | −6.03 ± 1.65 #NS % | 3.78 ± 0.34 | 4.02 ± 0.33 | −0.02 | −0.02 ± 0.08 #NS % | 7.03 ± 0.15 | 7.05 ± 0.11 | −3.25 | −3.25 ± 0.98 #@NS % | −6.45 ± 0.40 % |  | −7.1 | 3.60 ± 0.46 | −7.14 ± 1.70 | 3.87 ± 0.47 |
| chromium polynicotinate | 5.3 | 5.30 ± 1.04 #@NS % | 534.54 ± 32.56 | 507.72 ± 31.73 | −5.56 | −5.56 ± 1.34 #NS % | 3.75 ± 0.24 | 3.97 ± 0.23 | −0.01 | 0.01 ± 0.10 #NS % | 7.09 ± 0.13 | 7.08 ± 0.08 | −1.51 | −1.51 ± 1.78 #@NS % | −3.85 ± 0.86 @ % | −2.39 ± 2.18 ^ % | −5.4 | 3.83 ± 0.41 | −5.38 ± 1.31 | 4.04 ± 0.40 |
| O.O.O.O.O.O.[Cl][Cr]([Cl])[Cl] [Chromium chloride, Chromium chloride (CrCl3.6H2O)] | 4.22 | 4.22 ± 0.64 #$NS % | 527.08 ± 16.98 | 505.73 ± 16.66 | −5.14 | −5.14 ± 1.92 #NS % | 3.73 ± 0.39 | 3.93 ± 0.39 | −0.02 | −0.02 ± 0.10 #NS % | 6.89 ± 0.16 | 6.91 ± 0.16 | −0.1 | −0.10 ± 1.34 #@ % | −3.43 ± 1.49 NS % | −3.06 ± 1.98% | −4.65 | 3.76 ± 0.42 | −4.65 ± 1.95 | 3.94 ± 0.42 |
